Laboratory results as given in article PMC9027599, “Secondary Metabolites in Basil, Bio-Insecticide, Inhibition Effect, and In Silico Molecular Docking against Proteolytic Enzymes of the Red Palm Weevil (Rhynchophorus ferrugineus)” (Plants, 2022).
Converted amounts (≈) assume the structure as drawn.

What was measured:
R. ferrugineus adults = test: whole plant or invertebrate; conditions: Rhynchophorus ferrugineus
Method: The R. ferrugineus adult and larvae were acquired from an insect breeding lab at King Faisal University’s Date Palm Research Center of Excellence and grown utilizing sugarcane stem long pieces. The extracts activity against larvae was determined by using topical application method with storing larvae at 4–5 °C for 5 min. Previous serial concentrations of extract (10 µL) were applied to the dorsum of each larvae using a hand-operated micro-applicator (Burkard Manufacturing Co., Ltd., Hertfordshire, UK with a 50-ll micro-syringe (MS-N50; Ito Corp., Shizuoka, Japan). Each larva was feeding on 10 cm stem pieces of long sugarcane, with 5 larvae/box with three replicates. After topical administration, larval mortality was determined after 24, 48, 72, and 96 h to determine the LD50. Adults were tested for antifeedant effect determined using ten-centimeter-long sections of sugarcane stem divided into equal longitudinal halves. Pieces of long sections of sugarcane stem with area ~32.2 cm^2 were dipped for ten seconds in the previous serial concentration of extract (10 mL) and, then, dried in room temperature air. […] Each package received a replacement pair (male and female). Each treatment was replicated ten times. After 24, 48, 72, and 96 h, feeding observations were assayed.
Finney states that the statistical analysis and probit analysis were conducted using the SPSS 25.0 program (Statistical Package for Social Sciences, Armonk, NY, USA). Chemical components were determined by PCA using SPSS 25.0 program and presented using XLSTAT 2018.1. PCA is a clustering technique that is used to determine the relationships between samples. […] We did a mortality against dosage regression and converted the resultant median dose to an LC50 value (µg/mL). The range of LC50 was calculated with a 95 percent confidence interval using least-squares. We conducted a one-way analysis of variance on the enzyme activity data (ANOVA). The Student–Newman–Keuls (SNK) test was applied with separate means, and differences at p ≤ 0.05 were considered significant.

cysteine protease = test: Cysteine protease activity of midgut from larvae treated 24 h (in vivo); set-up: species or system Rhynchophorus ferrugineus; conditions: midgut of fourth instar larvae treated for 24 h
Method: The activity of cysteine proteinase was determined in the fourth midgut instar larval homogenate of R. ferrugineus using the substrate Z-Phe-Arg-MNA [1]. […] The reaction was centrifuged (at 5000 rpm, 6 min), then the absorbance was determined (at 520 nm). The activity of cysteine proteinase was measured using an ELISA quick plate reader at the OD520/60 min/mg of midgut protein. […]
As a control, an assay combination devoid of inhibitors was utilized. The absorbance of the enzymes was determined using an ELISA plate quick reader at various wavelengths. The percentage activity of the control enzyme for each inhibitor was evaluated for each enzyme. Protease activity was assayed in vivo in the R. ferrugineus fourth midgut larval instars, which were treated with 1, 10, 50, 100, 500, 1000, and 5000 mg/L of extracts or compounds, measured as described above. […]

elastase [1] = test: Elastase activity of midgut from larvae treated 24 h (in vivo); set-up: species or system Rhynchophorus ferrugineus; conditions: midgut of fourth instar larvae treated for 24 h
Method: (§1) The midguts were homogenized in the assay buffer (100 mM Tris-HCl, pH 8.1) and centrifuged for 30 min at 8000 rpm (Sigma 3K 30, rotors No. 12158). […] […] (100 mg/mL in DMF), BAρNA (100 mg/mL in DMSO), and […] (100 mg/mL in DMF) stock substrates were diluted in the assay buffer to 1 mg/mL, and substrate volume was 50 μL. […] The activity was quantified using an ELISA plate reader at a wavelength of 405 nm. As an empty well, an assay combination containing a denaturation enzyme was utilized instead of an active enzyme. […] To learn more about the proteases found in homogenate preparations of R. ferrugineus fourth midgut larval instars, inhibitors from many different types of mechanisms were used. […] As a control, an assay combination devoid of inhibitors was utilized. The absorbance of the enzymes was determined using an ELISA plate quick reader at various wavelengths. The percentage activity of the control enzyme for each inhibitor was evaluated for each enzyme. […] Larvae were exposed for 24 h to leaf discs treated with extract and compounds.

elastase [2] = test: Serine proteinase microplate assay, SAAPLpNA (in vitro); type: biochemical, Rhynchophorus ferrugineus; conditions: fourth instar larvae midgut homogenate
Method: as §1, with “The specific activities of serine proteinase were determined using a rapid quick microplate assay with substrates in reaction mixtures (150 μL) including a serine protease assay buffer, according to […] et al. and Olga et al. with modifications. The midguts” for “The midguts”

Compound | LC50 (R. ferrugineus adults) | IC50 against cysteine protease (in vivo) (cysteine protease) | IC50 against elastase (in vivo) (elastase [1]) | IC50 against elastase (in vitro) (elastase [2])
O=C(O)C[C@H](C(=O)O)[C@@H](O)C(=O)O [Isocitric acid] | 1830 µg/mL (≈ 9.5 mM) | – | – | –
O=C(/C=C/c1ccc(O)c(O)c1)O/C=C\c1ccc(O)c(O)c1 [Nepetoidin B] | 1320 µg/mL (≈ 4.19 mM) | – | – | –
C[C@@H]1O[C@@H](OC[C@H]2O[C@@H](Oc3c(-c4ccc(O)c(O)c4)oc4cc(O)cc(O)c4c3=O)[C@H](O)[C@@H](O)[C@@H]2O)[C@H](O)[C@H](O)[C@H]1O [Quercetin-3-O-rutinoside] | 1210 µg/mL (≈ 1.99 mM) | 746.6 µg/mL | – | –
O=C(/C=C/c1ccc(O)c(O)c1)O[C@H](Cc1ccc(O)c(O)c1)C(=O)O [Rosmarinic acid] | 1500 µg/mL (≈ 4.15 mM) | – | 119.7 µg/mL | 96.4 µg/mL
COc1ccc(-c2cc(=O)c3c(O)c(OC)c(OC)cc3o2)cc1 [Salvigenin, 5-Hydroxy-6,7,4′-trimethoxyflavone] | 1190 µg/mL (≈ 3.62 mM) | – | 138.2 µg/mL | 105.6 µg/mL
